Active and inactive are the calls of the source. The rule behind the calls is not given here.
Target: Glycogen synthase kinase-3 beta splice variant X1 (Bos taurus) (UniProt A0A059UE90)
Test: Inhibition of bovine cerebral TPK1 assessed as reduction in P-GS1 phosphorylation using [32gammaP]ATP incubated for 2 hrs by liquid scintillation counting method

SMILES	inhibition
COc1ccc(N)cc1[C@H]1CN(c2nc(-c3ccncc3F)cc(=O)n2C)CCO1	Active
Cn1c(N2CCO[C@@H](c3ccc(NC(=O)CN4CCOCC4)cc3)C2)nc(-c2ccncc2F)cc1=O	Active
Cn1c(N2CCO[C@@H](c3ccc(NC(=O)CN4CCN(c5ccccc5)CC4)cc3)C2)nc(-c2ccncc2F)cc1=O	Active
Cn1c(N2CCO[C@@H](c3ccc(NC4CCc5ccccc54)cc3)C2)nc(-c2ccncc2F)cc1=O (stereo not given in full)	Active
Cn1c(N2CCO[C@@H](c3ccc(NS(=O)(=O)c4ccccc4)cc3)C2)nc(-c2ccncc2F)cc1=O	Active
CN1CCN(CCCOc2ccc([C@H]3CN(c4nc(-c5ccncc5F)cc(=O)n4C)CCO3)cc2)CC1	Active
Cn1c(N2CCO[C@@H](c3ccc(N(c4ccccn4)c4ccccn4)cc3)C2)nc(-c2ccncc2F)cc1=O	Active
CC1CC1C(=O)Nc1ccc([C@H]2CN(c3nc(-c4ccncc4F)cc(=O)n3C)CCO2)cc1 (stereo not given in full)	Active
Cc1cc(N2CCN(c3ccc(C4CN(c5nc(-c6ccncc6F)cc(=O)n5C)CCO4)cc3)CC2)n(-c2ccccc2)n1 (stereo not given)	Active
CCN(CC)CCCOc1ccc([C@H]2CN(c3nc(-c4ccncc4F)cc(=O)n3C)CCO2)cc1	Active
Cn1c(N2CCO[C@@H](c3ccc(OC4CCN(C(=O)c5ccccc5)CC4)cc3)C2)nc(-c2ccncc2F)cc1=O	Active
CN(C)CCCOc1ccc([C@H]2CN(c3nc(-c4ccncc4F)cc(=O)n3C)CCO2)cc1	Active
CN(c1ccc([C@H]2CN(c3nc(-c4ccncc4F)cc(=O)n3C)CCO2)cc1)C1CCCCC1	Active
Cn1c(N2CCO[C@@H](c3cccc(NS(C)(=O)=O)c3)C2)nc(-c2ccncc2F)cc1=O	Active
Cc1nc(-c2ccc([C@H]3CN(c4nc(-c5ccncc5F)cc(=O)n4C)CCO3)cc2)no1	Active
Cn1c(N2CCO[C@@H](c3ccc(Nc4ccccn4)cc3)C2)nc(-c2ccncc2F)cc1=O	Active
Cn1c(N2CCOC(c3ccccc3OCCCN)C2)nc(-c2ccncc2F)cc1=O (stereo not given)	Active

SMILES	inhibition
COc1ccc(C#N)cc1[C@H]1CN(c2nc(-c3ccncc3F)cc(=O)n2C)CCO1	Active
Cn1c(N2CCO[C@@H](c3ccc(NC4C5CC6CC(C5)CC4C6)cc3)C2)nc(-c2ccncc2F)cc1=O (stereo not given in full)	Active
Cn1c(N2CCO[C@@H](c3ccc(C(=O)NCCO)cc3)C2)nc(-c2ccncc2F)cc1=O	Active
Cn1c(N2CCO[C@@H](c3ccc(OCCN4CCCCC4)cc3)C2)nc(-c2ccncc2F)cc1=O	Active
CN(c1ccc([C@H]2CN(c3nc(-c4ccncc4F)cc(=O)n3C)CCO2)cc1)C12CC3CC(CC(C3)C1)C2	Active
Cn1c(N2CCO[C@@H](c3ccc(OC[C@@H](O)CN4CCCC4)cc3)C2)nc(-c2ccncc2F)cc1=O	Active
Cn1c(N2CCO[C@@H](c3ccc(C(=O)NCc4ccccc4)cc3)C2)nc(-c2ccncc2F)cc1=O	Active
Cn1c(N2CCO[C@@H](c3ccc(OCCCN4CCCCC4)cc3)C2)nc(-c2ccncc2F)cc1=O	Active
CNC(=S)Nc1ccc([C@H]2CN(c3nc(-c4ccncc4F)cc(=O)n3C)CCO2)cc1	Active
COC(C)(C)C(=O)N(C)c1ccc([C@H]2CN(c3nc(-c4ccncc4F)cc(=O)n3C)CCO2)cc1	Active
Cn1c(N2CCO[C@@H](c3ccccc3)C2)nc(-c2ccncc2F)cc1=O	Active
CCN(c1ccc([C@H]2CN(c3nc(-c4ccncc4F)cc(=O)n3C)CCO2)cc1)C1CCCCC1	Active
Cn1c(N2CCO[C@@H](c3ccc(-c4ncon4)cc3)C2)nc(-c2ccncc2F)cc1=O	Active
Cn1c(N2CCO[C@@H](c3ccc(NC(=O)C(C)(C)O)cc3)C2)nc(-c2ccncc2F)cc1=O	Active
CCN(CC)CCOc1ccc([C@H]2CN(c3nc(-c4ccncc4F)cc(=O)n3C)CCO2)cc1	Active
CN(c1ccc([C@H]2CN(c3nc(-c4ccncc4F)cc(=O)n3C)CCO2)cc1)C1CCCCCC1	Active
Cn1c(N2CCO[C@@H](c3ccc(OCCCN4CCOCC4)cc3)C2)nc(-c2ccncc2F)cc1=O	Active

Continued, values first:

inhibition	SMILES
Active	Cn1c(N2CCO[C@@H](c3ccc(N4CCOC4=O)cc3)C2)nc(-c2ccncc2F)cc1=O
Active	Cn1c(N2CCN[C@@H](c3ccc(-c4ccc(OCC5CC5)cc4)cc3)C2)nc(-c2ccncc2F)cc1=O
Active	Cn1c(N2CCN[C@@H](c3ccc(-c4ccc(N)cc4)cc3)C2)nc(-c2ccncc2F)cc1=O
Active	C[C@@H]1CN(c2ccc([C@H]3CN(c4nc(-c5ccncc5F)cc(=O)n4C)CCO3)cc2)C[C@H](C)N1
Active	Cn1c(N2CCO[C@@H](c3ccc(N4CC[C@@H](N5CCOCC5)C4)cc3)C2)nc(-c2ccncc2F)cc1=O
Active	CC(=O)Nc1ccc([C@H]2CN(c3nc(-c4ccncc4F)cc(=O)n3C)CCO2)cc1
Active	Cn1c(N2CCN[C@@H](c3ccc(-c4ccc(OC(F)(F)F)cc4)cc3)C2)nc(-c2ccncc2F)cc1=O
Active	Cn1c(N2CCO[C@@H](c3ccc(N4CCC(O)C4)cc3)C2)nc(-c2ccncc2F)cc1=O (stereo not given in full)
Active	CC(=O)OCCN1CCN(c2ccc([C@H]3CN(c4nc(-c5ccncc5F)cc(=O)n4C)CCN3)cc2)CC1
Active	CN1CCC(Oc2ccc([C@H]3CN(c4nc(-c5ccncc5F)cc(=O)n4C)CCO3)cc2)CC1
Active	Cn1c(N2CCO[C@@H](c3ccc(N4CCC(N5CCCCC5)CC4)cc3)C2)nc(-c2ccncc2F)cc1=O
Active	Cn1c(N2CCO[C@@H](c3ccc(NC(=O)C4CCCC4)cc3)C2)nc(-c2ccncc2F)cc1=O
Active	Cn1c(N2CCN[C@@H](c3ccc(-c4ccc(C(F)(F)F)cc4)cc3)C2)nc(-c2ccncc2F)cc1=O
Active	COc1ccc(-c2ccc([C@H]3CN(c4nc(-c5ccncc5F)cc(=O)n4C)CCN3)cc2)cc1OC
Active	CN(C)C1CCN(c2ccc([C@H]3CN(c4nc(-c5ccncc5F)cc(=O)n4C)CCO3)cc2)CC1
Active	Cn1c(N2CCN[C@@H](c3ccc(N4CCC(O)C4)cc3)C2)nc(-c2ccncc2F)cc1=O (stereo not given in full)
Active	Cc1nc(-c2ccc(C3CN(c4nc(-c5ccncc5F)cc(=O)n4C)CCN3)cc2)no1 (stereo not given)
Active	CN(C)[C@H]1CCN(c2ccc([C@H]3CN(c4nc(-c5ccncc5F)cc(=O)n4C)CCN3)cc2)C1
Active	Cn1c(N2CCN[C@@H](c3ccc(N4CC[C@H](C#N)C4)cc3)C2)nc(-c2ccncc2F)cc1=O
Active	Cn1c(N2CCN[C@@H](c3ccc(N4CCC(N5CCCCC5)CC4)cc3)C2)nc(-c2ccncc2F)cc1=O
Active	Cn1c(N2CCO[C@@H](c3ccc(N4CC[C@@H](N5CCCCC5)C4)cc3)C2)nc(-c2ccncc2F)cc1=O
Active	Cn1c(N2CCNC(c3ccc(N4CCN(C(=O)OCc5ccccc5)CC4)cc3)C2)nc(-c2ccncc2F)cc1=O (stereo not given)
Active	Cn1c(N2CCO[C@@H](c3ccc(N4CCc5ccccc54)cc3)C2)nc(-c2ccncc2F)cc1=O

inhibition	SMILES
Active	Cn1c(N2CCO[C@@H](c3ccc(NC4CCCCC4)cc3)C2)nc(-c2ccncc2F)cc1=O
Active	Cn1c(N2CCNC(c3ccc(N4CCNCC4)cc3)C2)nc(-c2ccncc2F)cc1=O (stereo not given)
Active	CN(c1ccc([C@H]2CN(c3nc(-c4ccncc4F)cc(=O)n3C)CCN2)cc1)C1CCCCC1
Active	COc1ccc([C@H]2CN(c3nc(-c4ccncc4F)cc(=O)n3C)CCO2)cc1
Active	CC(O)c1ccc([C@H]2CN(c3nc(-c4ccncc4F)cc(=O)n3C)CCO2)cc1 (stereo not given in full)
Active	Cn1c(N2CCO[C@@H](c3ccc(O)cc3)C2)nc(-c2ccncc2F)cc1=O
Active	Cn1c(N2CCO[C@@H](c3ccc(N4CCN(c5ccccc5)CC4)cc3)C2)nc(-c2ccncc2F)cc1=O
Active	COc1ccc(-c2ccc([C@H]3CN(c4nc(-c5ccncc5F)cc(=O)n4C)CCN3)cc2)c(OC)c1
Active	Cn1c(N2CCO[C@@H](c3ccc(N4CC[C@H](N5CCCCC5)C4)cc3)C2)nc(-c2ccncc2F)cc1=O
Active	Cn1c(N2CCN[C@@H](c3ccc(N4CCN(CCO)CC4)cc3)C2)nc(-c2ccncc2F)cc1=O
Active	Cn1c(N2CCN[C@@H](c3ccc(-c4ccc(Cl)c(Cl)c4)cc3)C2)nc(-c2ccncc2F)cc1=O
Active	Cn1c(N2CCO[C@@H](c3ccc(NC(=O)N4CCOCC4)cc3)C2)nc(-c2ccncc2F)cc1=O
Active	Cn1c(N2CCO[C@@H](c3ccc(C(=O)N4CCCCC4)cc3)C2)nc(-c2ccncc2F)cc1=O
Active	CC(C)N1CCN(c2ccc([C@H]3CN(c4nc(-c5ccncc5F)cc(=O)n4C)CCO3)cc2)CC1
Active	CN(c1ccc([C@H]2CN(c3nc(-c4ccncc4F)cc(=O)n3C)CCO2)cc1)C1CCOCC1
Active	Cn1c(N2CCN[C@@H](c3ccc(-c4ccc(C(C)(C)C)cc4)cc3)C2)nc(-c2ccncc2F)cc1=O
Active	Cn1c(N2CCO[C@@H](c3ccc(N4CCC4)cc3)C2)nc(-c2ccncc2F)cc1=O
Active	Cn1c(N2CCN[C@@H](c3ccc(-c4ccc(Cl)cc4Cl)cc3)C2)nc(-c2ccncc2F)cc1=O
Active	Cn1c(N2CCO[C@@H](c3ccc(NC(=O)C4CC4)cc3)C2)nc(-c2ccncc2F)cc1=O
Active	CN(C)[C@H]1CCN(c2ccc([C@H]3CN(c4nc(-c5ccncc5F)cc(=O)n4C)CCO3)cc2)C1
Active	Cn1c(N2CCO[C@@H](c3ccc(OCCN4CCNCC4)cc3)C2)nc(-c2ccncc2F)cc1=O
Active	Cn1c(N2CCO[C@@H](c3ccc(N4CCC(O)CC4)cc3)C2)nc(-c2ccncc2F)cc1=O
Active	Cn1c(N2CCO[C@@H](c3ccc(N4CCCC4)cc3)C2)nc(-c2ccncc2F)cc1=O

Reference: ChEMBL document CHEMBL3727346, “6-(pyridinyl)-4-pyrimidone derivates as tau protein kinase 1 inhibitors” (2011)
